Values quoted from earlier work in US20070142355A1, “Association of a sinus node If curent inhibitor and an angiotensin converting enzyme inhibitor, and pharmaceutical compositions containing it” (LES LABORATOIRES SERVIER, priority 2005, published 2007).

Details: ivabradine alone, as generally established in clinical trials

For COc1cc2c(cc1OC)CC(=O)N(CCCN(C)C[C@H]1Cc3cc(OC)c(OC)cc31)CC2 [ivabradine, 3-{3-[{[(7S)-3,4-dimethoxy-bicyclo[4.2.0]octa-1,3,5-trien-7-yl]methyl}(methyl)amino]propyl}-7,8-dimethoxy-1,3,4,5-tetrahydro-2H-3-benzazepin-2-one], the “slight increase in systolic arterial pressure” value is given as roughly 1 mmHg.
